The results in this text go back to PMC9515468, “Tetracycline-grafted mPEG-PLGA micelles for bone-targeting and osteoporotic improvement” (Frontiers in Pharmacology, 2022).

The structures appear in SMILES notation.

The subject of series [1] is ovariectomized rats. Description: Osteoporotic study in ovariectomized rats (femur micro-CT, BMD). The note with it: 0.5 mg/kg/2 days intravenous; for BMD (bone mineral density) / BV/TV / SMI (structure model index) / Tb.N / Tb.Sp / Tb.Th: femur of ovariectomized rats, n = 3; for increase of femur BMD compared to the OVX group: ovariectomized rats, treatment for 8 weeks. Type of series: in vivo, SD rats. As to the method: Female SD rats were adopted for the osteoporotic study. […] All SD rats were anesthetized and bilaterally ovariectomized except those in the SHAM group, which underwent a sham operation. […] All SD rats were sacrificed, and their left femurs were collected. Detection of BMD was performed with a dual energy X-ray absorptiometric machine ([…] Microtomograph, Bruker, Belgium) ([Zhang et al., 2020]).

The nature of series [2]: AS release in vitro, dialysis bag method. Format: physicochemical. Conditions: in 48 h, PBS pH 7.4 with 0.5% Tween 80, 37 °C. As to the method:
The experiment was conducted with an oscillating machine (ZRS-8G model, Tianjin Univ. Radio Factory, China) at a speed of 100 rpm and 37 °C. Withdrawal of dissolution medium for analysis was accordingly performed, while the same volume of fresh medium was added at preset time periods. Measurement of AS concentration for the calculation of the cumulative release ratio with HPLC was carried out. The release curve was drawn with the abscissa as time and the cumulative release ratio as the ordinate ([Weng et al., 2019]).

A short description of series [3]: Pharmacokinetic parameters in the plasma. Type of series: in vivo. Conditions: SD rats, 10 mg/kg, tail vein, n = 6. As to the method:
In-house in vitro analysis of AS was performed with a Shimadzu high performance liquid chromatography (HPLC) machine ([…], Shimadzu-Japan) equipped with an ultraviolet detector and a Purospher® RP18 column (5 μm, 4.6 × 250 mm, Merck KGaA-Germany). […] For in vivo detection, the internal standard (IS) was a baicalein (20 μg/ml) solution, wherein ethyl acetate was employed to extract AS and IS from plasma ([Zhen et al., 2020]). […] Sampling of blood from the retro-orbital veins of rats at preset time intervals was performed after they had received the aforementioned dosage forms. To obtain serum, we stored the sampled blood for 30 min at 37°C prior to centrifugation at 3,700 rpm for 10 min. The following procedure has been depicted in Section 2.7. Based on observed values, we computed Cmax as the maximum AS concentration in plasma and Tmax as the time to attain Cmax. […] Estimation of oral relative biological availability (RBA) was carried out as follows ([Zhu et al., 2021]): […]

Series [4] can be described thus: Hydroxyapatite-targeting ability (binding to bone mineral). The note with it: 80 mg hydroxyapatite, 37°C, within 4 h. As to the method:
The precipitates were dissolved with 10 ml of methanol prior to 5 min of sonication and 10 min of centrifugation at 12,000 rpm. Filtration of the supernatant was accomplished with a filtering membrane (0.22 μm). The concentration of AS in the supernatant was detected by HPLC. The adsorption ability of bone targets was calculated by the following equation ([Yuan et al., 2020]): A%=Ia/I0×100% (5) where A% represents the adsorption ability of bone targets. The Ia denotes the amount of AS absorbed by hydroxyapatite. The I0 denotes the weight of AS in initial bone targets.

`CC(C)(O)[C@@H]1CC[C@](C)([C@H]2[C@@H](O)C[C@@]3(C)[C@@H]4C[C@H](O[C@@H]5O[C@H](CO)[C@@H](O)[C@H](O)[C@H]5O)[C@H]5C(C)(C)[C@@H](O[C@@H]6OC[C@@H](O)[C@H](O)[C@H]6O)CC[C@@]56C[C@@]46CC[C@]23C)O1` [AS, Astragaloside IV]: the “effect on osteoporosis in ovariectomized rats vs OVX group” value in series [1] (p < 0.05) was “certain mitigative effect”. Also, in series [1], the “BMD (bone mineral density)” value is 0.064 ± 0.003, the BV/TV was determined as 9.951 ± 0.100%, the “SMI (structure model index)” value is listed as 1.847 ± 0.032 and the Tb.N is recorded as 1.441 ± 0.026. Besides, in series [1], the Tb.Sp is 0.60 ± 0.018, the Tb.Th is 0.076 ± 0.002 mm and the “increase of femur BMD compared to the OVX group” value amounted to 12.9%. Besides, the cumulative release rate in series [2] is 79.05%. In series [3], the AUCt amounted to 12912 ng·h/mL; the peak concentration (Cmax) (usually the maximum level reached in the sampled fluid or tissue) came out at 14320 ng/mL; the MRT (in general, the average time that molecules of a dose stay in the body) is 82.14 min; the time to peak (Tmax) (in general, the time at which the peak concentration occurs) came out at 4.98 min. Further, the t1/2 in series [3] was 33.5 min. In series [4] (containing 1 mg AS), the “adsorption ability to hydroxyapatite (A%)” value was 26.98%. In series [4] (containing 5 mg AS), the “adsorption ability to hydroxyapatite (A%)” value was 28.83%.

With `C[C@]12CC[C@@H]3c4ccc(O)cc4CC[C@H]3[C@@H]1CC[C@@H]2O` [ES, estradiol], in series [1], the “BMD (bone mineral density)” value is listed as 0.093 ± 0.003, the BV/TV is recorded as 12.91 ± 0.703%, the “SMI (structure model index)” value amounted to 1.793 ± 0.052 and the Tb.N turned out to be 1.943 ± 0.063. In series [1], the Tb.Sp is recorded as 0.48 ± 0.016, the Tb.Th amounted to 0.074 ± 0.002 mm and the “increase of femur BMD compared to the OVX group” value amounted to 62.5%.
